Laboratory results taken from US11634404B2 (priority 2016, dated 2023).
Like-named read-outs stand apart in the source and are kept apart here.

How the values were obtained:
Format in all cases: cell-based
D3R [1] = target: T1, D3R (Homo sapiens (Human), UniProt P35462); test: BRET arrestin recruitment assay; conditions: orthogonal assay
D3R [2] = target: T1, D3R; test: Go BRET activation assay; conditions: orthogonal assay
D3R [3] = target: T1, D3R; test: ERK1/2 Phosphorylation assay; conditions: orthogonal assay
panel of 168 GPCRs [4] = target: panel of 168 GPCRs (Homo sapiens, UniProt P08588); conditions: GPCR ADRB1; agonist, 10 μM
panel of 168 GPCRs [5] = target: panel of 168 GPCRs (Homo sapiens, UniProt P08912); conditions: GPCR CHRM5; agonist, 10 μM
panel of 168 GPCRs [6] = target: panel of 168 GPCRs (Homo sapiens, UniProt P14416); conditions: GPCR DRD2L; agonist, 10 μM
panel of 168 GPCRs [7] = target: panel of 168 GPCRs (Homo sapiens, UniProt P25116); conditions: GPCR F2R; agonist, 10 μM
panel of 168 GPCRs [8] = target: panel of 168 GPCRs (Homo sapiens, UniProt P30988); conditions: agonist, 10 μM
panel of 168 GPCRs [9] = target: panel of 168 GPCRs (Homo sapiens, UniProt P32239); conditions: GPCR CCKBR; agonist, 10 μM
panel of 168 GPCRs [10] = target: panel of 168 GPCRs (Homo sapiens, UniProt P35367); conditions: GPCR HRH1; agonist, 10 μM
panel of 168 GPCRs [11] = target: panel of 168 GPCRs (Homo sapiens, UniProt P41586); conditions: GPCR ADCYAP1R1; agonist, 10 μM
panel of 168 GPCRs [12] = target: panel of 168 GPCRs (Homo sapiens, UniProt P46663); conditions: GPCR BDKRB1; agonist, 10 μM
panel of 168 GPCRs [13] = target: panel of 168 GPCRs (Homo sapiens, UniProt P51582); conditions: GPCR P2RY4; agonist, 10 μM
panel of 168 GPCRs [14] = target: panel of 168 GPCRs (Homo sapiens, UniProt Q13324); conditions: GPCR CRHR2; agonist, 10 μM
panel of 168 GPCRs [15] = target: panel of 168 GPCRs (Homo sapiens, UniProt Q15077); conditions: GPCR P2RY6; agonist, 10 μM
panel of 168 GPCRs [16] = target: panel of 168 GPCRs (Homo sapiens, UniProt Q16581); conditions: GPCR C3AR1; agonist, 10 μM
panel of 168 GPCRs [17] = target: panel of 168 GPCRs (Homo sapiens, UniProt Q8TDV5); conditions: GPCR GPR119; agonist, 10 μM
panel of 168 GPCRs [18] = target: panel of 168 GPCRs (Homo sapiens, UniProt Q9GZQ6); conditions: GPCR NPFFR1; agonist, 10 μM
panel of 168 GPCRs [19] = target: panel of 168 GPCRs (Homo sapiens, UniProt Q9HBW0); conditions: GPCR EDG4; agonist, 10 μM
panel of 168 GPCRs [20] = target: panel of 168 GPCRs (Homo sapiens, UniProt Q9Y5N1); conditions: GPCR HRH3; agonist, 10 μM
panel of 168 GPCRs [21] = conditions: GPCR DRD2S; agonist, 10 μM
D3R Y198A = D3R Y198A (Homo sapiens (Human), UniProt P35462, Y198A); test: Go BRET assay, mutagenesis
Excerpt: (§1) Go BRET activation assay. […].
(§2) […]. […] […]. The Y365A mutation had more dramatic effects. […].

D3R Y365A = D3R Y365A (Homo sapiens (Human), UniProt P35462, Y365A); test: Go BRET assay, mutagenesis
Excerpt: as §1, §2

[22] = Cytotoxicity screening panel, High Content Screening; conditions: human, HepG2 cells; Mitochondrial Membrane Potential, response direction ↓
Procedure: (§3) HepG2 cells were plated on 384-well tissue culture treated black walled clear bottomed polystyrene plates. The cells were dosed with test compound at a range of concentrations. At the end of the incubation period, the cells were loaded with the relevant dye/antibody for each cell health marker. The plates were then scanned using an automated fluorescent cellular imager, ArrayScan® (Thermo Scientific Cellomics). Cytotoxicity was assessed using a multi-parametric approach using High Content Screening (HCS). The following parameters were screened.
(§4) Nuclear size: An increase in nuclear area can indicate necrosis or G2 cell cycle arrest and a decrease can indicate apoptosis.
(§5) DNA structure: An increase in DNA structure can indicate chromosomal instability and DNA fragmentation.
(§6) Cell membrane permeability: An increase in cell membrane permeability is a general indicator of cell death.
(§7) Mitochondrial mass: A decrease in mitochondrial mass indicates loss of total mitochondria and an increase implies mitochondrial swelling or an adaptive response to cellular energy demands.
(§8) Mitochondrial membrane potential (Δψm): A decrease indicates a loss of mitochondrial membrane potential and mitochondrial toxicity, as well as a potential role in apoptosis signaling, an increase in mitochondrial membrane potential indicates an adaptive response to cellular energy demands.
(§9) Cytochrome c: An increase in cytochrome c release is one of the hallmarks of the apoptosis cascade.

HepG2 cells = test: as above
Procedure: as §3, §4, §5, §6, §7, §8, §9

[23] = Cell Membrane Permeability, response direction ↑
[24] = Cytochrome c, response direction ↑
[25] = DNA Structure, response direction ↑
[26] = Mitochondrial Mass, response direction ↑
[27] = Nuclear Size, response direction ↑

Chain of panel of 168 GPCRs (Homo sapiens, UniProt P30988) (P30988 25-474 limits assumed): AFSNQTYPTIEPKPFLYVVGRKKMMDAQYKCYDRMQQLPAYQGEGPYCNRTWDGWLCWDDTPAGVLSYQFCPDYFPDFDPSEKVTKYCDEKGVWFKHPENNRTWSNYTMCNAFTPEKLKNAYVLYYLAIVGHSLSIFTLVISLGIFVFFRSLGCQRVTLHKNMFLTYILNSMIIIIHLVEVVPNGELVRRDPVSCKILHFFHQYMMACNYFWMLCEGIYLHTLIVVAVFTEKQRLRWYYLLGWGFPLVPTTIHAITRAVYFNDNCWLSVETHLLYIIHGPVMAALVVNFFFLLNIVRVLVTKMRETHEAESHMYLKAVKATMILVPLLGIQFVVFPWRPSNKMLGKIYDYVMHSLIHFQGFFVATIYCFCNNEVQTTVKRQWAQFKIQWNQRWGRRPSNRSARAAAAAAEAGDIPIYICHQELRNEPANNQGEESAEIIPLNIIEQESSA
T1 sequence (P35462 whole entry): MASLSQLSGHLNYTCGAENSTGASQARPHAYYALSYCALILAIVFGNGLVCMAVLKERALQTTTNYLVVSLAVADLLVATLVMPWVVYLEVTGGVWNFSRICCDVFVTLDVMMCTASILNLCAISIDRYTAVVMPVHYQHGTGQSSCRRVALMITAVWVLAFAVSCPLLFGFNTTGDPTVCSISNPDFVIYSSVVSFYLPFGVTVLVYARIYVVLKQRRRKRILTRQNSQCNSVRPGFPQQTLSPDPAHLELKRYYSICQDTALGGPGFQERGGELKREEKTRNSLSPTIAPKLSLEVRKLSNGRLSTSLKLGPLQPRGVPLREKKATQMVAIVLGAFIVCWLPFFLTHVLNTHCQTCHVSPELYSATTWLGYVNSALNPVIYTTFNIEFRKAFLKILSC
Chain of D3R Y365A (P35462 whole entry Y365A): as the sequence (P35462 whole entry) above, with Y365A counted along it
Chain of D3R Y198A (P35462 whole entry Y198A): as the sequence (P35462 whole entry) above, with Y198A counted along it
Chain of panel of 168 GPCRs (Homo sapiens, UniProt P25116) (P25116 22-425 limits assumed): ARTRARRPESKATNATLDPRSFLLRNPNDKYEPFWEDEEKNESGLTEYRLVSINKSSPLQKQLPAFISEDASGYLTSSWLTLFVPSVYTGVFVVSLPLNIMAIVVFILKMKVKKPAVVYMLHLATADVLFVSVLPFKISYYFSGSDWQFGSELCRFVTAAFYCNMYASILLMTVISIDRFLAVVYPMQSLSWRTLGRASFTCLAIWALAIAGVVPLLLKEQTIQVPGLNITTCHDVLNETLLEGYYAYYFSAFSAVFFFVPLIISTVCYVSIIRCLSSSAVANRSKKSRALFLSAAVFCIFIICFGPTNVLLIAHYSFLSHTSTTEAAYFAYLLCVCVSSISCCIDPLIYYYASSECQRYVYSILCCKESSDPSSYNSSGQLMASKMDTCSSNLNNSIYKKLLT
Chain of panel of 168 GPCRs (Homo sapiens, UniProt P41586) (P41586 21-468 limits assumed): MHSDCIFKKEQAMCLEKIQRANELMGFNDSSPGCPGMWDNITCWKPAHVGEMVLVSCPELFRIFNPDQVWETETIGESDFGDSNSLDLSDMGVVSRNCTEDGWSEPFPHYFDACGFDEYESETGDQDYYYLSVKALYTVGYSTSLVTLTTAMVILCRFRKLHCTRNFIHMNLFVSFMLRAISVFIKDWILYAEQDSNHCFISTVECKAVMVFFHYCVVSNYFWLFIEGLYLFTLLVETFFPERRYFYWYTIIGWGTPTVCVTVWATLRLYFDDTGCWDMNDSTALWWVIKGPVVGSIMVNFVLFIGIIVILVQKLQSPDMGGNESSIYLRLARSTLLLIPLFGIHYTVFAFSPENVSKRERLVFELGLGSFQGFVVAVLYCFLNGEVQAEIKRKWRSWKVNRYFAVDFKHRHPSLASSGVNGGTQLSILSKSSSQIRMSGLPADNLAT

COc1ccc(OCCN2CCN(C(=O)c3cc4ccccc4[nH]3)CC2)cc1 [Compound 1, (1H-indol-2-yl)(4-(2-(4-methoxyphenoxy)ethyl)piperazin-1-yl)methanone]
agonist activity, β-arrestin recruitment (BRET) (D3R [1]): potent and fully efficacious D3R-selective agonist
agonist activity, G-protein mediated signaling (Go BRET) (D3R [2]): potent and fully efficacious D3R-selective agonist
agonist activity, ERK phosphorylation (D3R [3]): potent and fully efficacious D3R-selective agonist
β-Arrestin Recruitment activity (panel of 168 GPCRs [4]): 3%
β-Arrestin Recruitment activity (panel of 168 GPCRs [5]): 3%
β-Arrestin Recruitment activity (panel of 168 GPCRs [6]): 37%
β-Arrestin Recruitment activity (panel of 168 GPCRs [7]): 5%
β-Arrestin Recruitment activity (panel of 168 GPCRs [8]; GPCR CALCR RAMP2): 5%
β-Arrestin Recruitment activity (panel of 168 GPCRs [8]; GPCR CALCR RAMP3): 6%
β-Arrestin Recruitment activity (panel of 168 GPCRs [8]; GPCR CALCR): 0%
β-Arrestin Recruitment activity (panel of 168 GPCRs [9]): 4%
β-Arrestin Recruitment activity (panel of 168 GPCRs [10]): 0%
β-Arrestin Recruitment activity (panel of 168 GPCRs [11]): 6%
β-Arrestin Recruitment activity (panel of 168 GPCRs [12]): 0%
β-Arrestin Recruitment activity (panel of 168 GPCRs [13]): 13%
β-Arrestin Recruitment activity (panel of 168 GPCRs [14]): 0%
β-Arrestin Recruitment activity (panel of 168 GPCRs [15]): 6%
β-Arrestin Recruitment activity (panel of 168 GPCRs [16]): 0%
β-Arrestin Recruitment activity (panel of 168 GPCRs [17]): 16%
β-Arrestin Recruitment activity (panel of 168 GPCRs [18]): 4%
β-Arrestin Recruitment activity (panel of 168 GPCRs [19]): 6%
β-Arrestin Recruitment activity (panel of 168 GPCRs [20]): 3%
β-Arrestin Recruitment activity (panel of 168 GPCRs [21]): 43%
effect of mutation on potency (D3R Y198A): minimal effects on the potency
signaling efficacy, % that of dopamine (D3R Y198A; Y198A mutation): 64%
effect of mutation on efficacy (D3R Y365A): appeared to be unaffected
potency reduction (D3R Y365A; Y365A mutation): 25,000 fold
AC50 [22]: > 50 µM
AC50 (HepG2 cells; [23]): > 50 µM
MEC (HepG2 cells; [23]): 8.58 µM
AC50 (HepG2 cells; [24]): > 50 µM
MEC (HepG2 cells; [24]): 6.03 µM
AC50 (HepG2 cells; [25]): > 50 µM
MEC (HepG2 cells; [25]): 13.9 µM
AC50 (HepG2 cells; [26]): > 50 µM
MEC (HepG2 cells; [26]): 11.9 µM
MEC (HepG2 cells; Mitochondrial Membrane Potential, response direction ↓): 9.28 µM
AC50 (HepG2 cells; [27]): > 50 µM
MEC (HepG2 cells; [27]): 12.0 µM
